# Assay results as given in patent US20240199754A1 (VANCOUVER BIOTECH LTD., priority 2021, published 2024).
# Experiments:
# [1] = biological target: T1, N1-29 synthetic oligopeptide of GnRH receptor from humans (Homo sapiens, UniProt P30968); assay: Comparative binding ELISA on well-coated N1-29 oligopeptide (human); conditions: vs unrelated RP215 negative control
# T1 sequence (P30968 1-30): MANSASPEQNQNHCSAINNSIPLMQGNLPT
# Procedure: (§1) Therefore, comparative binding ELISA studies were performed to estimate the relative binding affinity between GHR-106 and microwell-coated N1-29 oligopeptides derived from human, dog and rabbit, respectively. The results of such binding studies are presented and compared in FIG. 2.
# (§2) Unrelated RP215 monoclonal antibody was used as the negative control for any blank subtractions. Goat anti-human IgG labeled with alkaline phosphatase was used as the second antibody for signal detection. P-nitrophenyl phosphate was used as the substrate and monitored at 405 nm and double log plot presented.
# [2] = system: N1-29 synthetic oligopeptide of GnRH receptor from dog; assay: Comparative binding ELISA on well-coated N1-29 oligopeptide (dog); conditions: vs unrelated RP215 negative control
# Procedure: as §1, §2
# [3] = system: N1-29 synthetic oligopeptide of GnRH receptor from rabbit; assay: Comparative binding ELISA on well-coated N1-29 oligopeptide (rabbit); conditions: vs unrelated RP215 negative control
# Procedure: as §1, §2
# [4] = system: pituitary GnRH receptor; assay: Serum LH and testosterone after single injection, single adult male rabbit; format: in vivo
# Procedure: In the case of male rabbits, serum concentrations of reproductive hormones including luteinizing hormone (LH) and testosterone were monitored regularly following a single subcutaneous injection with 3 mg/kg of hGHR-106.
# The serum LH and testosterone concentrations were determined, respectively, by EIA kits and plotted as a function of time during the day 1 to 30 time period.
# [5] = system: pituitary GnRH receptor; assay: Serum LH and estradiol after single injection, female rabbit; format: in vivo
# Procedure: The hormonal profiles of serum luteinizing hormone (LH) and Estradiol (E2) in female rabbits were monitored upon a single injection with a 3 mg/kg dose of hGHR-106.
# [6] = system: pituitary GnRH receptor; assay: Large scale proof of concept experiment, male rabbits (testosterone, LH); format: in vivo, rabbit
# Procedure: (§3) With preliminary observations in single rabbit data, large scale rabbit experiments (n≥30) including negative controls were conducted with identical protocols. […] The data generated in each experimental group were analyzed statistically. The means and standard deviations of hormone levels from rabbits in each experimental group are presented in FIGS. 6-9 and corresponding selected statistical analyses and separate comparisons with those of the negative controls are presented in Table 1 to Table 4.
# In the case of male rabbits, the serum concentrations of reproductive hormones including LH and testosterone of ten male rabbits were monitored and measured after a single subcutaneous injection with 1 mg/kg of GHR-106 (low dosage, n=3) or 3 mg/kg of GHR-106 (high dosage, n=3) on day 1, or after no injection (negative control, n=4). Serum testosterone levels were determined and the averages (with standard deviations) were determined from day 1 to day 17, and serum LH levels were determined starting on day 1 and ending on day 13 (with standard deviations) The results of the testosterone profile are found in FIG. 6. The results of the LH profile are found in FIG. 7. Selected statistical analyses and separate comparisons with those of the negative controls for FIG. 6 and FIG. 7 are found in Table 1 and Table 2, respectively.
# [7] = system: pituitary GnRH receptor; assay: Large scale proof of concept experiment, female rabbits (estradiol, LH); format: in vivo, rabbit
# Procedure: as §3
# Target sequence in this assay (as listed by the source): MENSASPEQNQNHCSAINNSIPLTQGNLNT
# In the case of female rabbits, the serum concentrations of reproductive hormones including LH and estradiol (E2) of ten female rabbits were monitored and measured after a single subcutaneous injection with 1 mg/kg of GHR-106 (low dosage, n=3) or 3 mg/kg of GHR-106 (high dosage, n=3) on day 1, or after no injection (negative control, n=4). Serum E2 levels were determined starting on day 1 and ending on day 17, and serum LH levels were determined starting on day 1 and ending on day 13. The results of the estradiol (E2) profile are found in FIG. 8. The results of the LH profile are found in FIG. 9. Selected statistical analyses and separate comparisons with those of the negative controls for FIG. 8 and FIG. 9 are found in Table 3 and Table 4, respectively.
# [8] = system: pituitary GnRH receptor; assay: Proof-of-concept rabbit experiments overall (single and multi-rabbit); format: in vivo; conditions: single injection, 1 mg/kg or 3 mg/kg
# Procedure: as §3
# [9] = system: OC-3-VGH ovarian cancer cells; assay: Quantitative RT-PCR gene regulation study; format: cell-based, human; conditions: quantitative RT-PCR after incubation with cancer cells
# [10] = biological target: T2, GnRHR (Homo sapiens, UniProt P30968); assay: Detection of GnRHR overexpression in a reference cell line; format: cell-based; conditions: compared with four commercially available antibodies
# T2 sequence (P30968 1-328): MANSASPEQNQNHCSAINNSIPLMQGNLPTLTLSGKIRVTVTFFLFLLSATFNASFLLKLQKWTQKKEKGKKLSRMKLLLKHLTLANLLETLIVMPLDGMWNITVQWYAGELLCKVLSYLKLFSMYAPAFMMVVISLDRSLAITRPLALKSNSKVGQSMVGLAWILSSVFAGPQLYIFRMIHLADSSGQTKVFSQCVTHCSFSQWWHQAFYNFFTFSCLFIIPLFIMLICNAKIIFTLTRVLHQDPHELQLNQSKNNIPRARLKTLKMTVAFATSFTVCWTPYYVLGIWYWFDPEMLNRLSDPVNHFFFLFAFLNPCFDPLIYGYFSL
# Procedure: In particular, the ability of GHR-106 to detect overexpression of GnRHR in a reference cell line is tested and compared with four different commercially available antibodies.
# [11] = in vivo; cited from earlier work
# [12] = system: N1-29 peptide of monkey GnRH receptor; conditions: cited from earlier work
# [13] = system: N1-29 peptide of rabbit GnRH receptor; conditions: cited from earlier work
# [14] = system: N1-29 peptide of dog GnRH receptor; conditions: cited from earlier work
# [15] = system: N1-29 peptide of cat GnRH receptor; conditions: cited from earlier work
# [16] = system: human cancer cells; conditions: 24 to 72 hours co-incubation with 1-10 μg/ml; cited from earlier work
# [17] = male rabbit, single subcutaneous injection of 1 mg/kg or 3 mg/kg
# [18] = male rabbits, single injection day 1, low (1 mg/kg) or high (3 mg/kg) dosage, vs negative control
# [19] = single injection day 1, low (1 mg/kg) or high (3 mg/kg) dosage, vs negative control
# N1-29 synthetic oligopeptide of GnRH receptor from dog, sequence (as listed by the source): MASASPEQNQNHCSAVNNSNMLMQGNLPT
# N1-29 peptide of cat GnRH receptor, sequence (as listed by the source): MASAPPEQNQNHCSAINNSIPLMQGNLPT
# N1-29 synthetic oligopeptide of GnRH receptor from rabbit, sequence (as listed by the source): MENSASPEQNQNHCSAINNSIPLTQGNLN
# N1-29 peptide of monkey GnRH receptor, sequence (as listed by the source): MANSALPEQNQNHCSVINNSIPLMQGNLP
substance,measurement,setting,value
"GHR-106: monoclonal antibody against N1-29 oligopeptide of human GnRH receptor; examples use humanized IgG4 form, heavy chain SEQ ID NO:7, light chain SEQ ID NO:8","binding affinity to N1-29 peptide (ELISA, ΔOD 405 nm)",[1],comparable to one another
same,"binding affinity to N1-29 peptide (ELISA, ΔOD 405 nm)",[2],comparable to one another
same,"binding affinity to N1-29 peptide (ELISA, ΔOD 405 nm)",[3],comparable to one another
same,duration of low LH levels,[4]; 3 mg/kg s.c.,at least one to two
same,serum LH,"[4]; 3 mg/kg s.c., after 24-48 hours, from 3.5 mlU/ml",< 0.5 mlU/ml
same,"serum LH, stable normal range reached","[4]; 3 mg/kg s.c., end of the third week",2.9-5.0 mlU/ml
same,decrease of serum testosterone concentration,"[4]; 3 mg/kg single injection, first two weeks",more than 80%
same,serum testosterone concentration,"[4]; 3 mg/kg single injection, first two weeks, from 0.95 ng/ml",≤ 0.1 ng/mL
same,LH and testosterone hormone levels,"[4]; 3 mg/kg, day 30",within the normal range
same,serum LH,"[5]; 3 mg/kg single injection, first few days, from 3 mlU/ml",≤ 1 mlU/ml
same,serum E2 concentration,"[5]; 3 mg/kg single injection, until day 10, from 50 pg/ml",≤ 20 pg/mL
same,serum E2 concentration reached on recovery,"[5]; 3 mg/kg, after day 18 and 20",120 pg/mL
same,serum LH concentration reached on recovery,"[5]; 3 mg/kg, after day 18 and 20",6 mIU/ml
same,"decrease of serum LH concentration, of the normal level",[6]; [17],80 to 90%
same,"decrease of serum testosterone concentration, of the normal level",[6]; [17],80 to 90%
same,period of decreased serum LH and testosterone,[6]; [17],seven to ten
same,time until reproductive hormones returned to normal levels after the initial injection,[6]; [17],approximately two
same,"t test, LH profile, neg. ctrl to 1 mg/kg","[6]; male rabbits, Day 3, 1 mg/kg",3.579
same,"t test, testosterone profile, neg. ctrl to 1 mg/kg","[6]; male rabbits, Day 3, 1 mg/kg",2.966
same,"t test, LH profile, neg. ctrl to 3 mg/kg","[6]; male rabbits, Day 3, 3 mg/kg",1.474
same,"t test, testosterone profile, neg. ctrl to 3 mg/kg","[6]; male rabbits, Day 3, 3 mg/kg",4.2
same,"t test, LH profile, neg. ctrl to 1 mg/kg","[6]; male rabbits, Day 5, 1 mg/kg",4.698
same,"t test, testosterone profile, neg. ctrl to 1 mg/kg","[6]; male rabbits, Day 5, 1 mg/kg",3.353
same,"t test, LH profile, neg. ctrl to 3 mg/kg","[6]; male rabbits, Day 5, 3 mg/kg",3.596
same,"t test, testosterone profile, neg. ctrl to 3 mg/kg","[6]; male rabbits, Day 5, 3 mg/kg",3.851
same,"t test, LH profile, neg. ctrl to 1 mg/kg","[6]; male rabbits, Day 7, 1 mg/kg",4.126
same,"t test, testosterone profile, neg. ctrl to 1 mg/kg","[6]; male rabbits, Day 7, 1 mg/kg",1.086
same,"t test, LH profile, neg. ctrl to 3 mg/kg","[6]; male rabbits, Day 7, 3 mg/kg",3.62
same,"t test, testosterone profile, neg. ctrl to 3 mg/kg","[6]; male rabbits, Day 7, 3 mg/kg",7.396
same,"t test, LH profile, neg. ctrl to 1 mg/kg","[6]; male rabbits, Day 9, 1 mg/kg",2.936
same,"t test, testosterone profile, neg. ctrl to 1 mg/kg","[6]; male rabbits, Day 9, 1 mg/kg",0.3439
same,"t test, LH profile, neg. ctrl to 3 mg/kg","[6]; male rabbits, Day 9, 3 mg/kg",3.56
same,"t test, testosterone profile, neg. ctrl to 3 mg/kg","[6]; male rabbits, Day 9, 3 mg/kg",0.8405
same,serum LH levels,[6]; [18],reversibly suppressed
same,serum testosterone levels,[6]; [18],reversibly suppressed
same,"t test, LH profile, neg. ctrl to 1 mg/kg","[7]; Day 3, 1 mg/kg",3.93
same,"t test, estradiol (E2) profile, neg. ctrl to 1 mg/kg","[7]; Day 3, 1 mg/kg",1.179
same,"t test, LH profile, neg. ctrl to 3 mg/kg","[7]; Day 3, 3 mg/kg",6.348
same,"t test, estradiol (E2) profile, neg. ctrl to 3 mg/kg","[7]; Day 3, 3 mg/kg",1.125
same,"t test, LH profile, neg. ctrl to 1 mg/kg","[7]; Day 5, 1 mg/kg",6.556
same,"t test, estradiol (E2) profile, neg. ctrl to 1 mg/kg","[7]; Day 5, 1 mg/kg",2.893
same,"t test, LH profile, neg. ctrl to 3 mg/kg","[7]; Day 5, 3 mg/kg",5.114
same,"t test, estradiol (E2) profile, neg. ctrl to 3 mg/kg","[7]; Day 5, 3 mg/kg",2.039
same,"t test, LH profile, neg. ctrl to 1 mg/kg","[7]; Day 7, 1 mg/kg",6.018
same,"t test, estradiol (E2) profile, neg. ctrl to 1 mg/kg","[7]; Day 7, 1 mg/kg",2.807
same,"t test, LH profile, neg. ctrl to 3 mg/kg","[7]; Day 7, 3 mg/kg",4.126
same,"t test, estradiol (E2) profile, neg. ctrl to 3 mg/kg","[7]; Day 7, 3 mg/kg",2.45
same,"t test, LH profile, neg. ctrl to 1 mg/kg","[7]; Day 9, 1 mg/kg",1.1
same,"t test, estradiol (E2) profile, neg. ctrl to 1 mg/kg","[7]; Day 9, 1 mg/kg",3.048
same,"t test, LH profile, neg. ctrl to 3 mg/kg","[7]; Day 9, 3 mg/kg",4.126
same,"t test, estradiol (E2) profile, neg. ctrl to 3 mg/kg","[7]; Day 9, 3 mg/kg",5.087
same,serum LH levels,[7]; [19],reversibly suppressed
same,serum estradiol (E2) levels,[7]; [19],reversibly suppressed
same,time until hormone levels return to normal ranges,[8],1-3 weeks
same,"gene expression changes of ten regulatory genes, compared between GHR-106 and Antide",[9],strong similarity
same,ability to detect overexpression of GnRHR,[10],able to detect overexpression of GnRHR
same,half-life,[11],120 to 504 h
same,cross-reactivity with N1-29 peptide,[12],cross-reacts
same,cross-reactivity with N1-29 peptide,[13],cross-reacts
same,cross-reactivity with N1-29 peptide,[14],cross-reacts
same,cross-reactivity with N1-29 peptide,[15],cross-reacts
same,degrees of induced apoptosis,[16],"comparable to those of the decapeptide GnRH antagonist, Antide"
